Consider 11 compounds from ChEMBL document CHEMBL1201862, “PubChem BioAssay data set” (2004).

Each structure is given as a SMILES string.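 Briefly, cells in 96-well plates were exposed to five compound concentrations for 48 h, and endpoints were estimated by linear interpolation. The concentration for 50% growth inhibition is given as GI50.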 Active and inactive are the calls of the source. Cut-off read from the data, not from the text of the source: active = GI50 up to about 1.1 µM and inactive = higher.

Common to all, as to assay: NCI anticancer screen, dose series, 48 h
Test [1] relates to MDA-N.
The test system of test [2] is HT-29.
Test [3] concerns M19-MEL.
The subject of test [4] is SNB-78.
The subject of test [5] is RXF 393.
The test system of test [6] is CAKI-1.
Test [7] concerns HCT-15.
The test system of test [8] is SK-OV-3.
Test [9] concerns SR.
In test [10] the test system is SK-MEL-2.
Test [11] relates to IGROV-1.
Test [12] has as its system TK-10.
Test [13] concerns HOP-62.
In test [14] the test system is M14.
In test [15] the test system is SF-268.
For test [16], the system named is HOP-18.
For test [17], the system named is OVCAR-8.
Test [18] concerns COLO 205.
Test [19] concerns SK-MEL-5.

`CCOC(=O)c1c(CN2CCNCC2)nc2ccc(Cl)cc2c1-c1ccccc1`: the GI50 in test [1] was 5.78 µM (inactive); in [2], 1.79 µM (inactive); in test [3], 1.9 µM (inactive); in test [4] it was 8.18 µM (inactive); in test [5], 2.58 µM (inactive); in [6] it was 2.47 µM (inactive). Also, the GI50 was 3.91 µM in test [7]; 6.93 µM (inactive) in [8]; 1.78 µM (inactive) in test [9]; 1.79 µM (inactive) in test [10]; 5 µM (inactive) in [11]; 5.07 µM (inactive) in test [12]. For the same compound, the GI50 in test [13] is 6.95 µM (inactive); in test [14], 1.81 µM (inactive); in test [15], 5.6 µM (inactive); in [16] it was 1.79 µM (inactive); in test [17], 4.21 µM (inactive); in test [18], 2.03 µM (inactive). The GI50 in [19] was 1.42 µM (inactive).

With `O=C(c1cccc2ccccc12)N1CCC(C2CCN(C(=O)c3cccc4ccccc34)CC2)CC1`, the GI50 in test [2] was > 100 µM (inactive); in test [3] it was > 100 µM (inactive); in [4], 70.1 µM (inactive); in [5] it was > 100 µM (inactive); in [6] it was > 100 µM (inactive); in test [7], above 100 µM. The GI50 in test [8], in [9], in test [10], in test [11], in test [12] and in test [13] was > 100 µM (inactive) throughout. Also, the GI50 in test [14], in test [15], in test [16], in test [17], in test [18] and in test [19] was > 100 µM (inactive) throughout.

For `CC(=O)NNc1nc(C)c(C(=O)NNC(=O)C(=O)Nc2c(C)cccc2C)s1`, the GI50 was 36.6 µM (inactive) in test [2]; 32.7 µM (inactive) in [3]; 36.1 µM (inactive) in test [4]; 32.2 µM (inactive) in [5]; 65.6 µM (inactive) in test [6]; 32.3 µM in test [7]. Moreover, the GI50 in test [8] was > 100 µM (inactive); in test [10] it was 48.9 µM (inactive); in test [11] it was 46.1 µM (inactive); in test [12], 77.1 µM (inactive); in test [13], > 100 µM (inactive); in test [14], 54.1 µM (inactive). Further, the GI50 in test [15] was 33.2 µM (inactive); in [16] it was 29.2 µM (inactive); in test [17], 26.2 µM (inactive); in [18], 31.8 µM (inactive); in test [19], 53 µM (inactive).

For the compound `CN(C)C(=S)/N=c1\ss/c(=N\C(=S)N(C)C)n1Cc1ccco1`, the GI50 in test [3] was > 100 µM (inactive); in test [4], > 100 µM (inactive); in test [5], > 100 µM (inactive); in [6] it was > 100 µM (inactive); in test [7], above 100 µM; in test [8], > 100 µM (inactive). Moreover, the GI50 in test [9], in test [10], in test [11], in test [12], in test [13] and in [14] was > 100 µM (inactive) in each case. Moreover, the GI50 in test [15], in test [16], in test [17], in test [18] and in [19] was > 100 µM (inactive) each time.

Consider `N#CSCc1nc2ccc(Cl)cc2c(-c2ccccc2)[n+]1[O-]`, for which the GI50 is 20 µM (inactive) in [2]; 31.8 µM (inactive) in test [3]; 36.9 µM (inactive) in [4]; 12.7 µM (inactive) in test [5]; 25.8 µM (inactive) in test [6]; 17.3 µM in test [7]. The GI50 in test [9] is 24.9 µM (inactive); in test [10] it was 20.1 µM (inactive); in test [11], > 10 µM (inactive); in test [12], > 100 µM (inactive); in test [13], > 100 µM (inactive); in test [14], 21.9 µM (inactive). Further, the GI50 in test [15] is 25.7 µM (inactive); in test [16] it was 19.5 µM (inactive); in test [17], 19.7 µM (inactive); in test [18], 60.1 µM (inactive).

Regarding `O=C1CC(O)C=C1Nc1ccc(Cl)cc1` (configuration not stated), the GI50 is 13.7 µM (inactive) in test [2]; 25.2 µM (inactive) in test [3]; 39.6 µM (inactive) in test [4]; 40.5 µM (inactive) in test [5]; 10.5 µM (inactive) in test [6]; > 100 µM (inactive) in test [8]. Further, the GI50 in test [9] was 19.1 µM (inactive); in [10], 29.6 µM (inactive); in test [11] it was 43.1 µM (inactive); in test [12], > 100 µM (inactive); in test [13] it was 79.6 µM (inactive); in [14], 10.3 µM (inactive). For the same compound, the GI50 in [15] is 62.4 µM (inactive); in [16], 29.4 µM (inactive); in [17], 49.2 µM (inactive); in test [18], 9.95 µM (inactive); in [19], 30.5 µM (inactive).

`c1ccc2c(c1)N=C(c1cccc3ccccc13)CC(c1cccc3ccccc13)S2` (configuration not stated): the GI50 in test [2] was 3.33 µM (inactive); in test [3] it was 5.53 µM (inactive); in test [4], 5.53 µM (inactive); in test [5], 3.48 µM (inactive); in [6] it was 4.43 µM (inactive); in test [7] it was 4.26 µM. Also, the GI50 in test [8] is 10.3 µM (inactive); in [9], 2.07 µM (inactive); in test [10], 14.9 µM (inactive); in test [11], 5.68 µM (inactive); in test [12], 12.2 µM (inactive); in [13], 9.14 µM (inactive). Further, the GI50 was 13.2 µM (inactive) in [14]; 4.42 µM (inactive) in test [15]; 5.57 µM (inactive) in test [16]; 2.96 µM (inactive) in [17]; 12.9 µM (inactive) in [18]; 8.95 µM (inactive) in test [19].

`CCC(C)OC(=O)C1C2CCC(O2)C1C(=O)O` (configuration not stated): the GI50 was > 43.4 µM (inactive) in test [2]; > 60.7 µM (inactive) in test [3]; > 100 µM (inactive) in [4]; > 41.5 µM (inactive) in test [5]; > 100 µM (inactive) in [6]; above 41.1 µM in [7]. Further, the GI50 was > 100 µM (inactive) in test [8]; 19.2 µM (inactive) in test [9]; > 100 µM (inactive) in test [10]; > 100 µM (inactive) in test [11]; > 100 µM (inactive) in test [12]; > 100 µM (inactive) in [13]. For the same compound, the GI50 is > 100 µM (inactive) in [14]; > 51.2 µM (inactive) in test [15]; > 100 µM (inactive) in [16]; > 70 µM (inactive) in [17]; > 44.8 µM (inactive) in [18]; > 100 µM (inactive) in test [19].

For the compound `COC(=O)CC(=O)OC`, the GI50 in test [2] is > 100 µM (inactive); in test [3], > 100 µM (inactive); in [4] it was > 100 µM (inactive); in test [5], > 100 µM (inactive); in [6], > 100 µM (inactive); in [7], above 100 µM. For the same compound, the GI50 in [8], in test [10], in test [11], in test [12], in test [13] and in test [14] was > 100 µM (inactive) in each case. For the same compound, the GI50 in test [15], in [16], in [17], in [18] and in test [19] was > 100 µM (inactive) in each case.

`CCc1cccc(NC(=O)c2cc(/C=C/c3ccccc3)nc(S)n2)c1`: the GI50 in test [2] was > 100 µM (inactive); in [3], > 100 µM (inactive); in test [4], > 100 µM (inactive); in [5], > 100 µM (inactive); in [7] it was above 100 µM; in test [8], > 100 µM (inactive). In addition, the GI50 in test [9], in test [10], in test [11], in test [12], in [13] and in test [14] was > 100 µM (inactive) throughout. Moreover, the GI50 in test [15], in test [16], in test [17], in test [18] and in test [19] was > 100 µM (inactive) each time.

For `CC1(C)C(=NNC(=O)C[N+](C)(C)C)C(C)(C)C1=NNC(=O)C[N+](C)(C)C`, the GI50 in test [2] was > 100 µM (inactive); in test [3], > 100 µM (inactive); in [4] it was > 100 µM (inactive); in test [5], > 100 µM (inactive); in [6], > 100 µM (inactive); in [7], above 100 µM. Further, the GI50 in test [8], in [9], in test [10], in test [11], in [12] and in test [13] was > 100 µM (inactive) in each case. Besides, the GI50 in [14], in [15], in test [16], in [17], in test [18] and in [19] was > 100 µM (inactive) each time.
